Article PMC10818746, “Inhibition of CYP1A1 Alleviates Colchicine-Induced Hepatotoxicity” (Toxins, 2024)

Legend:
Assay type in all cases: in vitro ADME
Conditions in all cases: colchicine 25 µM, NADPH 1 mM, CYP 2 pmol/mL, PBS pH 7.4; mean ± SD (n = 2)
[1] = molecular target: T1, CYP3A4 (Homo sapiens, UniProt P08684); assay: Colchicine metabolism by cDNA-expressed recombinant CYP3A4
T1 construct: purchased Research Institute for Liver Diseases Co., Ltd. (Shanghai, China)
Procedure: (§1) Pre-cooled acetonitrile was used to terminate the reaction, and then centrifugation (4 °C, 12,000 rpm, 20 min) was performed to obtain the sample.
(§2) All samples were analyzed as shown in [17] and are briefly described in Supporting Information. […]
(§3) Supplementary materials and methods
(§4) Reference numbers refer to the main text list
(§5) UHPLC‐Q exactive plus MS Analysis
(§6) All samples were analyzed on a liquid chromatography system including a Vanquish autosampler, Vanquish detector, Vanquish pump (Thremo Fisher Scientific, Santa Clara, CA). Samples were separated on an ACQUITY UPLC HSS T3 column (2.1×100 mm, […], Waters, USA). The injection volume: 5 μL, and the flow rate was 0.3 mL/min.
(§7) Phase A was H2O containing 0.01% formic acid, and phase B was acetonitrile containing 0.01% formic acid. The elution gradient was as follows: 0‐12 mi n, 2‐98% B; 12‐14 min, 2% A; 14‐16 min, 98% A. Other parameters are as follows: column temperature 45 ℃ , flow rate of collision gas and dry gas 9 L/min. Capillary voltage 3.5 kV, temperature 350 ℃ , atomizer pressure 35 psi. Vanquish UHPLC‐Q Exactive plus MS (Thermo Fisher, USA) was collected in both positive modes, operating in full scan mode with 60‐900 m/z. […]

[2] = molecular target: T2, CYP2C19 (Homo sapiens, UniProt P33261); assay: Colchicine metabolism by cDNA-expressed recombinant CYP2C19
T2 construct: purchased Research Institute for Liver Diseases Co., Ltd. (Shanghai, China)
Procedure: as §1, §2, §3, §4, §5, §6, §7

[3] = molecular target: T3, CYP1A2 (Homo sapiens, UniProt P05177); assay: Colchicine metabolism by cDNA-expressed recombinant CYP1A2
T3 construct: purchased Research Institute for Liver Diseases Co., Ltd. (Shanghai, China)
T3 sequence (P05177 1-516): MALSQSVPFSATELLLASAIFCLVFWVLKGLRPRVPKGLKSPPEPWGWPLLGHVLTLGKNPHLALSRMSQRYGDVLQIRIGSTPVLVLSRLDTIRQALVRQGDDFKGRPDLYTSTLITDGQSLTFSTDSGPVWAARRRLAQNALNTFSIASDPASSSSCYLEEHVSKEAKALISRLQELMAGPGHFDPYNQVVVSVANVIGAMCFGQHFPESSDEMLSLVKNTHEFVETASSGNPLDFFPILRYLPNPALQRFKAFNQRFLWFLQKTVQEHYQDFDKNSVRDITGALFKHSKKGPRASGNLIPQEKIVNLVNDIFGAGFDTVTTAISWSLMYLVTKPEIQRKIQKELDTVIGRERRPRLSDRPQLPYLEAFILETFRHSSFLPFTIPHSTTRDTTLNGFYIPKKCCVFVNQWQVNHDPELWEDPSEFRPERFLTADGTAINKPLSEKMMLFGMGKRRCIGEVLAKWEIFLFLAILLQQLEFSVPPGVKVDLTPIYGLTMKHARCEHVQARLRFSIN
Procedure: as §1, §2, §3, §4, §5, §6, §7

[4] = molecular target: T4, CYP2D6 (Homo sapiens, UniProt P10635); assay: Colchicine metabolism by cDNA-expressed recombinant CYP2D6
T4 construct: purchased Research Institute for Liver Diseases Co., Ltd. (Shanghai, China)
Procedure: as §1, §2, §3, §4, §5, §6, §7

[5] = molecular target: T5, CYP4A11 (Homo sapiens, UniProt Q02928); assay: Colchicine metabolism by cDNA-expressed recombinant CYP4A11
T5 construct: purchased Research Institute for Liver Diseases Co., Ltd. (Shanghai, China)
T5 sequence (Q02928 5-519): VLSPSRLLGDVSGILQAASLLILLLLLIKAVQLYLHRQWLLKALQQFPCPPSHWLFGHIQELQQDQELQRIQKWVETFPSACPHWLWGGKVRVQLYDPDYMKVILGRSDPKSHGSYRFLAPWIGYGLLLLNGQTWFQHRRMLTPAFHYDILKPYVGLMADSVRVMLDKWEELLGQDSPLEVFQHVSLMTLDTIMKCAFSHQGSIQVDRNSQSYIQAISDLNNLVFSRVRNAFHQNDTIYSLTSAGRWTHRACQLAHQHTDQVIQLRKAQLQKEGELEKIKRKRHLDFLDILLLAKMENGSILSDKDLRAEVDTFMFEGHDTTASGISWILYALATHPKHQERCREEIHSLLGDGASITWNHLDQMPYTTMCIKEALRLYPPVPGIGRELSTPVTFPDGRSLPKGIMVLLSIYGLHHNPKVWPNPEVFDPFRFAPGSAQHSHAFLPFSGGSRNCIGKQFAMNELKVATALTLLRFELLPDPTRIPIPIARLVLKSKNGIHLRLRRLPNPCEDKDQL
Procedure: as §1, §2, §3, §4, §5, §6, §7

T1 sequence (P08684 whole entry): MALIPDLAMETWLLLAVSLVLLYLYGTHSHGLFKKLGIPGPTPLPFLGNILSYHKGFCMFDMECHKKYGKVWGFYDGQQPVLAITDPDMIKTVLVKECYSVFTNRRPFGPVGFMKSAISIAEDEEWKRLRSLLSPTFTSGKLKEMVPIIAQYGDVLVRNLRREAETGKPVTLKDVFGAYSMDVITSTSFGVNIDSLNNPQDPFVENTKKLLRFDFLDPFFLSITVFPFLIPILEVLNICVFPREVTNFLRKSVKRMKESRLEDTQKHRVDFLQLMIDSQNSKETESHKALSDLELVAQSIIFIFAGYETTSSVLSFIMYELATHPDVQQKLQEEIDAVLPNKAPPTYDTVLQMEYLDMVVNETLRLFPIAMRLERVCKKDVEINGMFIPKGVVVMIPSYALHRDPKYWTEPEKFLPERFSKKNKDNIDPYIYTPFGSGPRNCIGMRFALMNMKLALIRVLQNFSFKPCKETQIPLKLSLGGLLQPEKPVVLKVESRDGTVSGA
T2 sequence (P33261 whole entry): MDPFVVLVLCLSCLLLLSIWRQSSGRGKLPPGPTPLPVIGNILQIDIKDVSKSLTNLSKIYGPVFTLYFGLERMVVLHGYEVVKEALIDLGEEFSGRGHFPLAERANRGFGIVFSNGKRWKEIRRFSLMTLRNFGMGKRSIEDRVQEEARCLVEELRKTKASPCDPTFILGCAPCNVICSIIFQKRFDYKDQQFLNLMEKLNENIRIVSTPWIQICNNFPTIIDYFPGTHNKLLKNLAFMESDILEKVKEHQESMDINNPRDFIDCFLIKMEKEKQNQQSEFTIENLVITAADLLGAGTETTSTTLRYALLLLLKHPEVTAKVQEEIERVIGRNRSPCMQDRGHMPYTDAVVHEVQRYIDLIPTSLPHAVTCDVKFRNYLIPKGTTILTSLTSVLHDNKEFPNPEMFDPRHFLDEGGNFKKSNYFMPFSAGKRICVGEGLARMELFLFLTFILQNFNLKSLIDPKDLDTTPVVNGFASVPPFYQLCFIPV
T4 sequence (P10635 whole entry): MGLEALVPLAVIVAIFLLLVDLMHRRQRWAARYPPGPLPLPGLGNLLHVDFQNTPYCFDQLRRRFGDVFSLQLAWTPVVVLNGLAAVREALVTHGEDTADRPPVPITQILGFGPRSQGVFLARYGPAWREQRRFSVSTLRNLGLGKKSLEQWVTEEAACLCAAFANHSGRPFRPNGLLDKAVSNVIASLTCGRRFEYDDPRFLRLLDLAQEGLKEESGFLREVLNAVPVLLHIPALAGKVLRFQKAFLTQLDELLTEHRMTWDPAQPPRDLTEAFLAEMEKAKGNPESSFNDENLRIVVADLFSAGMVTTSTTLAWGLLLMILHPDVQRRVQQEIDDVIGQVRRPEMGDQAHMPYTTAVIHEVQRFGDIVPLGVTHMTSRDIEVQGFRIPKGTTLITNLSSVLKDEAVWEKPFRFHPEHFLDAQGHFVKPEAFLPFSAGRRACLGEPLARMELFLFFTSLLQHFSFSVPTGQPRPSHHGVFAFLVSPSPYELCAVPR

Row | Structure (SMILES) | peak area of the metabolite after incubation with CYP3A4 as a percentage of the total peak areas from all the CYPs [1] | peak area of the metabolite after incubation with CYP2C19 as a percentage of the total peak areas from all the CYPs [2] | peak area of the metabolite after incubation with CYP1A2 as a percentage of the total peak areas from all the CYPs [3] | peak area of the metabolite after incubation with CYP2D6 as a percentage of the total peak areas from all the CYPs [4] | peak area of the metabolite after incubation with CYP4A11 as a percentage of the total peak areas from all the CYPs [5]
1 | COc1cc2c(c(OC)c1O)-c1ccc(OC)c(=O)cc1[C@@H](NC(C)=O)CC2 [M1] | 14.93 ± 1.41% | 8.35 ± 0.65% | 6.36 ± 0.19% | 7.91 ± 0.60% | 6.48 ± 0.33%
2 | COc1c(O)cc2c(c1OC)-c1ccc(OC)c(=O)cc1[C@@H](NC(C)=O)C=C2 [M5] | 7.72 ± 15.62% | 8.63 ± 1.05% | 8.33 ± 0.00% | 7.65 ± 11.17% | 8.01 ± 0.00%
3 | COc1c(O)cc2c(c1O)-c1ccc(OC)c(=O)cc1[C@@H](NC(C)=O)CC2 [M8] | 12.27 ± 1.54% | 7.66 ± 2.52% | 8.67 ± 3.80% | – | 7.65 ± 1.95%
4 | COc1cc2c(c(O)c1OC)-c1ccc(OC)c(=O)cc1[C@@H](NC(C)=O)CC2 [M2] | 47.73 ± 5.45% | 6.27 ± 0.30% | 0.00 ± 0.00% | 3.23 ± 0.56% | 3.57 ± 0.39%
5 | COc1cc2c(c(OC)c1OC)-c1ccc(O)c(=O)cc1[C@@H](NC(C)=O)CC2 [M4] | 12.18 ± 0.70% | 6.69 ± 1.91% | 6.72 ± 0.44% | 11.27 ± 3.15% | 6.78 ± 0.33%
6 | COc1cc2c(c(OC)c1OC)-c1ccc(OC)c(=O)cc1C=CC2 [M6] | 6.55 ± 0.65% | 6.74 ± 0.36% | 8.69 ± 0.17% | 7.59 ± 0.36% | 6.01 ± 0.22%
